In ChEMBL document CHEMBL1126358, “New hexahydroxydiphenyl derivatives as potent inhibitors of HIV replication in H9 lymphocytes” (Bioorg Med Chem Lett, 1992):

How the values were obtained:
H9 [1] = assay: Concentration which inhibits uninfected cell growth of HIV by 50% (IC50>140 uM) in acutely infected H9 lymphocyte cells was determined; type: functional, cell-based; conditions: Homo sapiens
H9 [2] = assay: Concentration of compound which inhibits virus replication of HIV by 50% (EC50 of 10 uM) in acutely infected H9 lymphocyte cells was determined; type: functional, cell-based; conditions: Homo sapiens

COc1c(OCc2ccccc2)c(OCc2ccccc2)cc(CO)c1-c1c(CO)cc(OCc2ccccc2)c(OCc2ccccc2)c1OC
IC50 (H9 [1]): > 140 µM
EC50 (H9 [2]): 10 µM

COc1c(OCc2ccccc2)c(OCc2ccccc2)cc(CBr)c1-c1c(CBr)cc(OCc2ccccc2)c(OCc2ccccc2)c1OC
IC50 (H9 [1]): 30 µM
EC50 (H9 [2]): 13 µM

OCc1cc(OCc2ccccc2)c(OCc2ccccc2)c(OCc2ccccc2)c1-c1c(CO)cc(OCc2ccccc2)c(OCc2ccccc2)c1OCc1ccccc1
IC50 (H9 [1]): > 120 µM
EC50 (H9 [2]): > 120 µM

COc1c(OCc2ccccc2)c(OCc2ccccc2)cc(C=O)c1-c1c(C=O)cc(OCc2ccccc2)c(OCc2ccccc2)c1OC
IC50 (H9 [1]): 4 µM
EC50 (H9 [2]): 2 µM

Cc1cn([C@H]2C[C@H](N=[N+]=[N-])[C@@H](CO)O2)c(=O)[nH]c1=O [ZIDOVUDINE]
IC50 (H9 [1]): 2000 µM
EC50 (H9 [2]): 0.04 µM

O=Cc1cc(OCc2ccccc2)c(OCc2ccccc2)c(OCc2ccccc2)c1-c1c(C=O)cc(OCc2ccccc2)c(OCc2ccccc2)c1OCc1ccccc1
IC50 (H9 [1]): 70 µM
EC50 (H9 [2]): 45 µM

BrCc1cc(OCc2ccccc2)c(OCc2ccccc2)c(OCc2ccccc2)c1-c1c(CBr)cc(OCc2ccccc2)c(OCc2ccccc2)c1OCc1ccccc1
IC50 (H9 [1]): > 100 µM
EC50 (H9 [2]): > 100 µM

OCc1cc(OCc2ccccc2)c(OCc2ccccc2)c(O)c1-c1c(CO)cc(OCc2ccccc2)c(OCc2ccccc2)c1O
IC50 (H9 [1]): 13 µM
EC50 (H9 [2]): 6 µM
